Measurements taken from EP2928504B1, “PROTEIN-POLYMER-DRUG CONJUGATES” (Mersana Therapeutics, Inc., priority 2012, dated 2014).
Like-named read-outs stand apart in the source and are kept apart here.

Key:
Assay in all cases: Cell viability assay (Cell Titer-Glo)
Assay type in all cases: cell-based
[1] = system: SKBR3; conditions: Homo sapiens, SK-BR-3, 72 h
Protocol: (§1) PBRM-drug polymer conjugates were evaluated for their tumor viability using Cell Titer-Glo (Promega Corp). Cells were plated in black walled 96-well plate and allowed to adhere overnight at 37°C in a humidified atmosphere of 5% CO2. HER2 expressing cells SKBR3, BT474, NCI-N87 and cells expressing low levels of HER2-MCF7 were plated at a density of 5,000 cells per well. The next day the medium was replaced with 50 µL fresh medium and 50 µL of 2x stocks of PBRM-drug polymer conjugate, drug polymer conjugate or drug were added to appropriate wells, mixed and incubated for 72 h. Cell Titer-Glo reagent was added to the wells at room temperature and the luminescent signal was measured after 10 min using a SpectraMax M5 plate reader (Molecular Devices). Dose response curves were generated using SoftMax Pro software. IC50 values were determined from four-parameter curve fitting.

[2] = system: BT474; conditions: Homo sapiens, BT-474, 72 h
Protocol: as §1

[3] = system: NCI-N87
Protocol: as §1

[4] = system: HCT15
[5] = system: MCF7
Protocol: as §1

[6] = Table VIII, drug compounds, read-out: SKBR3 IC50
[7] = Table VIII, drug compounds, read-out: BT474 IC50
[8] = Homo sapiens, NCI-N87, 72 h, Table VIII, drug compounds, read-out: N87 IC50
[9] = Homo sapiens, HCT-15, 72 h, Table VIII, drug compounds, read-out: HCT15 IC50
[10] = Homo sapiens, MCF7, 72 h, Table VIII, drug compounds, read-out: MCF7 IC50

CCCO[C@H](C[C@H](C(C)C)N(CCC)C(=O)[C@@H](NC(=O)[C@H]1CCCCN1C)[C@@H](C)CC)c1nc(C(=O)N[C@@H](Cc2ccc(O)cc2)C[C@H](C)C(=O)O)cs1 [drawing 786 (R43 = H, R78 = -OH)] was tested, and the IC50 [1, 6] was 0.06 nM, the IC50 [2, 7] was 0.04 nM and the IC50 [3, 8] was 0.1 nM. It also gave an IC50 [4, 9] of 0.29 nM.
For COc1cc2cc(C(=O)N3C[C@@H](CCl)c4c3cc(O)c3ccccc43)[nH]c2c(OC)c1OC [drawing 780 (R91 = H)], the IC50 [1, 6] was 1.05 nM, the IC50 [2, 7] was 3.7 nM and the IC50 [5, 10] was 0.99 nM. The IC50 [4, 9] was 1.75 nM.
CCCO[C@H](C[C@H](C(C)C)N(CCC)C(=O)[C@@H](NC(=O)[C@H]1CCCCN1C)[C@@H](C)CC)c1nc(C(=O)N[C@@H](Cc2ccc(O)cc2)C[C@H](C)C(=O)OCCCN)cs1 showed an IC50 [4, 9] of 23 nM.
In the case of CCCO[C@H](C[C@H](C(C)C)N(CCC)C(=O)[C@@H](NC(=O)[C@H]1CCCCN1C)[C@@H](C)CC)c1nc(C(=O)N[C@@H](Cc2ccc(OC(=O)NCCCCN)cc2)C[C@H](C)C(=O)O)cs1, the IC50 [1, 6] is reported as 0.08 nM, the IC50 [2, 7] is reported as 0.1 nM and the IC50 [3, 8] is reported as 0.24 nM. The IC50 [5, 10] was 0.68 nM and the IC50 [4, 9] was 4.6 nM.
For COc1cc2cc(C(=O)N3C[C@@H](CCl)c4c3cc(OC(=O)[C@@H]3CCCN3)c3ccccc43)[nH]c2c(OC)c1OC, the IC50 [1, 6] was 1.34 nM, the IC50 [2, 7] was 4.55 nM and the IC50 [3, 8] was 0.93 nM. The IC50 [4, 9] was 1.53 nM.
In the case of COc1cc2cc(C(=O)N3C[C@@H](CCl)c4c3cc(OC(=O)[C@@H](N)C(C)C)c3ccccc43)[nH]c2c(OC)c1OC, the IC50 [1, 6] is reported as 0.95 nM, the IC50 [2, 7] is reported as 3.47 nM and the IC50 [3, 8] is reported as 0.96 nM.
CCC(C)C(C(CC(=O)N1CCCC1C(OC)C(C)C(=O)NC(Cc1ccccc1)C(=O)NO)OC)N(C)C(=O)C(NC(=O)C(C(C)C)N(C)C)C(C)C (stereo not shown) [drawing 765 (R40 = -OH)] gave an IC50 [1, 6] of 12 nM, an IC50 [2, 7] of 20.6 nM and an IC50 [5, 10] of 39 nM.
CCC(C)C(C(CC(=O)N1CCCC1C(OC)C(C)C(=O)NC(Cc1ccccc1)C(=O)NCC(C)O)OC)N(C)C(=O)C(NC(=O)C(C(C)C)N(C)C)C(C)C (stereo not shown) [drawing 771] showed an IC50 [1, 6] of 0.44 nM, an IC50 [2, 7] of 1.27 nM and an IC50 [3, 8] of 0.69 nM. For the same molecule, the IC50 [5, 10] was 1.88 nM and the IC50 [4, 9] was 31.8 nM.
In the case of COc1cc2cc(C(=O)N3C[C@@H](CCl)c4c3cc(OC(=O)N3CCN(CCN)CC3)c3ccccc43)[nH]c2c(OC)c1OC, the IC50 ([1]; read-out: SKBR3 IC50, Table VIII, drug compounds) is reported as 100 nM, the IC50 ([2]; read-out: BT474 IC50, Table VIII, drug compounds) is reported as 100 nM and the IC50 ([3]; Homo sapiens, NCI-N87, 72 h, read-out: N87 IC50, Table VIII, drug compounds) is reported as 77 nM. The IC50 ([5]; Homo sapiens, MCF7, 72 h, read-out: MCF7 IC50, Table VIII, drug compounds) was 100 nM and the IC50 ([4]; Homo sapiens, HCT-15, 72 h, read-out: HCT15 IC50, Table VIII, drug compounds) was 68 nM.
CCC(C)C(C(CC(=O)N1CCCC1C(OC)C(C)C(=O)NC(Cc1ccccc1)C(=O)NCC(C)O)OC)N(C)C(=O)C(NC(=O)C(C(C)C)N(C)C)C(C)C (stereo not shown) [drawing 772] gave an IC50 ([3]; Table VIII, drug compounds, 72 h, read-out: N87 IC50) of 0.78 nM, an IC50 ([5]; Table VIII, drug compounds, 72 h, read-out: MCF7 IC50) of 2.06 nM and an IC50 ([4]; Table VIII, drug compounds, 72 h, read-out: HCT15 IC50) of 32.4 nM.
With CCC(C)C(C(CC(=O)N1CCCC1C(OC)C(C)C(=O)NC(Cc1ccccc1)C(=O)OCCN)OC)N(C)C(=O)C(NC(=O)C(C(C)C)N(C)C)C(C)C (stereo not shown) the IC50 [3, 8] was 0.89 nM.
Work on CCC(C)C(C(CC(=O)N1CCCC1C(OC)C(C)C(=O)NC(Cc1ccccc1)C(=O)NCCN)OC)N(C)C(=O)C(NC(=O)C(C(C)C)N(C)C)C(C)C (stereo not shown) yielded an IC50 [3, 8] of 0.89 nM.
Work on COc1cc2cc(C(=O)N3C[C@@H](CCl)c4c3cc(OC(=O)N(C)CCO)c3ccccc43)[nH]c2c(OC)c1OC yielded an IC50 [1, 6] of 21.5 nM, an IC50 [2, 7] of 68 nM and an IC50 [3, 8] of 30 nM. It also gave an IC50 [5, 10] of 100 nM and an IC50 [4, 9] of 100 nM.
CCCO[C@H](C[C@H](C(C)C)N(CCC)C(=O)[C@@H](NC(=O)[C@H]1CCCCN1C)[C@@H](C)CC)c1nc(C(=O)N[C@@H](Cc2ccc(O)cc2)C[C@H](C)C(N)=O)cs1 [drawing 786 (R43 = H, R78 = -NH2)] gave an IC50 [1, 6] of 1.6 nM, an IC50 [2, 7] of 1.35 nM and an IC50 [3, 8] of 3.2 nM. For the same molecule, the IC50 [5, 10] was 3.3 nM.
CCCO[C@H](C[C@H](C(C)C)N(CCC)C(=O)[C@@H](NC(=O)[C@H]1CCCCN1C)[C@@H](C)CC)c1nc(C(=O)N[C@@H](Cc2ccc(O)cc2)C[C@H](C)C(=O)OC)cs1 [drawing 786 (R43 = H, R78 = -OCH3)] was tested, and the IC50 [1, 6] was 0.71 nM and the IC50 [5, 10] was 3.02 nM.
CCC(C)C(C(CC(=O)N1CCCC1C(OC)C(C)C(=O)NC(C)C(O)c1ccccc1)OC)N(C)C(=O)C(NC(=O)C(C(C)C)N(C)C)C(C)C (stereo not shown) [drawing 777 (R90 = -H)] was tested, and the IC50 [3, 8] was 0.24 nM and the IC50 [4, 9] was 10.1 nM.
CCC(C)C(C(CC(=O)N1CCCC1C(OC)C(C)C(=O)NC(Cc1ccccc1)C(N)=O)OC)N(C)C(=O)C(NC(=O)C(C(C)C)N(C)C)C(C)C (stereo not shown) [drawing 765 (R40 = H)] gave an IC50 [1, 6] of 0.32 nM and an IC50 [5, 10] of 1.78 nM.
CCC(C)C(C(CC(=O)N1CCCC1C(OC)C(C)C(=O)NC(Cc1ccccc1)C(=O)NCCCOC(=O)C1CCCN1)OC)N(C)C(=O)C(NC(=O)C(C(C)C)N(C)C)C(C)C (stereo not shown) was tested, and the IC50 [1, 6] was 0.88 nM, the IC50 [2, 7] was 3.5 nM and the IC50 [3, 8] was 1.51 nM. The IC50 [5, 10] was 3.3 nM and the IC50 [4, 9] was 85.7 nM.
For COc1cc2cc(C(=O)N3C[C@@H](CCl)c4c3cc(OC(=O)CCN)c3ccccc43)[nH]c2c(OC)c1OC, the IC50 [1, 6] was 2.07 nM, the IC50 [2, 7] was 6.54 nM and the IC50 [5, 10] was 1.4 nM. The IC50 [4, 9] was 2.5 nM.
CCC(C)C(C(CC(=O)N1CCCC1C(OC)C(C)C(=O)NC(Cc1ccccc1)C(=O)OC)OC)N(C)C(=O)C(NC(=O)C(C(C)C)N(C)C)C(C)C (stereo not shown) [drawing 761 (R42 = -CH3)] was tested, and the IC50 [2, 7] was 0.09 nM, the IC50 [3, 8] was 0.03 nM and the IC50 [5, 10] was 0.27 nM. For the same molecule, the IC50 [4, 9] was 0.41 nM.
